The values that follow are results of earlier work, collected in patent publication US20190021382A1, “LONG-LASTING SWEETENER FORMULATIONS” (WM. WRIGLEY JR. COMPANY, priority 2016, published 2019).

The conditions of this data set: relative to sugar.

With `C=C1C[C@@]23CC[C@H]4[C@@](C)(CCC[C@@]4(C)C(=O)O[C@@H]4O[C@H](CO)[C@@H](O)[C@H](O)[C@H]4O)[C@@H]2CC[C@]1(O[C@@H]1O[C@H](CO)[C@@H](O)[C@H](O[C@@H]2O[C@H](CO)[C@@H](O)[C@H](O)[C@H]2O)[C@H]1O[C@@H]1O[C@H](CO)[C@@H](O)[C@H](O)[C@H]1O)C3` [Rebaudioside A, rebaudioside A], the “times sweeter than sugar” value is listed as 200 times.
